target: T1, human TLR9 (Homo sapiens, UniProt Q9NR96); assay: HEK293-Blue-hTLR-9 cells assay; assay type: cell-based; details: HEK293-Blue-hTLR9 cells, ODN2006 stimulation, 20 hrs, SEAP reporter; read-out: HEK/hTLR9 IC50
T1 construct: host or cells: HEK293 (HEK-Blue hTLR9)
T1 sequence (Q9NR96 26-1032): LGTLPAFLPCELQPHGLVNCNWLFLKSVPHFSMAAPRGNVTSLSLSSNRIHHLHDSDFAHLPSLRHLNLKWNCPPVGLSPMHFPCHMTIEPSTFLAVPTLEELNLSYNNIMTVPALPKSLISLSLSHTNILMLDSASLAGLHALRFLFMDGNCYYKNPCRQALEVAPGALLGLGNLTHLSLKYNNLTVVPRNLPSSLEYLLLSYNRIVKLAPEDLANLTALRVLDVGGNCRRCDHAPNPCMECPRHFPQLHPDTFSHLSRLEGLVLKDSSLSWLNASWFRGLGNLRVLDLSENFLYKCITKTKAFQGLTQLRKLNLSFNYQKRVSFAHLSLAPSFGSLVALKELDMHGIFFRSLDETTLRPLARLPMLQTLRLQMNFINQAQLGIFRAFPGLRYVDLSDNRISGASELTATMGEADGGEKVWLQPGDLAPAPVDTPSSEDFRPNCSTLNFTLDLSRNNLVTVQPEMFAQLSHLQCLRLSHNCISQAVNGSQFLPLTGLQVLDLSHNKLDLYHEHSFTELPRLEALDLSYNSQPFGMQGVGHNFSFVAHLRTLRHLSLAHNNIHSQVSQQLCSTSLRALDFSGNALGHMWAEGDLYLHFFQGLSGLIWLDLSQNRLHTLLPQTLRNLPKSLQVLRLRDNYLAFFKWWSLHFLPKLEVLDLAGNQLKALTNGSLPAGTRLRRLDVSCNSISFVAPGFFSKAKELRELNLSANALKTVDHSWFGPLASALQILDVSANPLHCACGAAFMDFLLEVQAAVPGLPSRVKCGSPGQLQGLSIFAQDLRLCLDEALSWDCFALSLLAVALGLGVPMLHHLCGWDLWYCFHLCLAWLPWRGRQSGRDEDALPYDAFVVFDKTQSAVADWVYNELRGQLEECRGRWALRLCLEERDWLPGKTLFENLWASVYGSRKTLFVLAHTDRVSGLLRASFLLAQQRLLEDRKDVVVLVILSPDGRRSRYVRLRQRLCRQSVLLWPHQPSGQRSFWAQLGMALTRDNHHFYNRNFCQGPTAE

SMILES	IC50 [nM]
Cc1cc(N2CCN3[C@@H](C2)CN(c2ccc(C#N)c4ncccc24)C[C@H]3C)cc(N2CC(C)(N)C2)n1 [Example 73, 5-[(4R,9aS)-8-[2-(3-amino-3-methyl-azetidin-1-yl)-6-methyl-4-pyridyl]-4-methyl-3,4,6,7,9,9a-hexahydro-1H-pyrazino[1,2-a]pyrazin-2-yl]quinoline-8-carbonitrile]	< 32
C[C@@H]1CN(c2ccc(C#N)c3ncccc23)C[C@@H]2CN(Cc3cccc4c3CCNC4)CCN21 [Example 70, 5-[(4R,9aS)-4-methyl-8-(1,2,3,4-tetrahydroisoquinolin-5-ylmethyl)-3,4,6,7,9,9a-hexahydro-1H-pyrazino[1,2-a]pyrazin-2-yl]quinoline-8-carbonitrile]	97
C[C@@H]1CN(c2ccc(C#N)c3ncccc23)C[C@@H]2CN(Cc3ccc4c(c3)CNCC4)CCN21 [Example 5, 5-[(4R,9aS)-4-methyl-8-(1,2,3,4-tetrahydroisoquinolin-7-ylmethyl)-3,4,6,7,9,9a-hexahydro-1H-pyrazino[1,2-a]pyrazin-2-yl]quinoline-8-carbonitrile]	< 32
[2H]c1ccc2c(N3C[C@@H]4CN(c5ncc(N6CC(C)(N)C6)cc5C)CCN4[C@@H](C)C3)ccc(C#N)c2n1 [Example 118, 5-[(4S,9aR)-8-[5-(3-amino-3-methyl-azetidin-1-yl)-3-methyl-2-pyridyl]-4-methyl-3,4,6,7,9,9a-hexahydro-1H-pyrazino[1,2-a]pyrazin-2-yl]-2-deuterio-quinoline-8-carbonitrile]	148
C[C@@H]1CN(c2ccc(C#N)c3ncccc23)C[C@@H]2CN(CCc3ccc(N4C[C@H]5NCCO[C@@H]5C4)nc3)CCN21 [Example 124, 5-[(4R,9aS)-8-[2-[6-[(4aR,7aR)-3,4,4a,5,7,7a-hexahydro-2H-pyrrolo[3,4-b][1,4]oxazin-6-yl]-3-pyridyl]ethyl]-4-methyl-3,4,6,7,9,9a-hexahydro-1H-pyrazino[1,2-a]pyrazin-2-yl]quinoline-8-carbonitrile]	55
C[C@@H]1CN(c2ccc(C#N)n3ncc(F)c23)C[C@@H]2CN(CCc3ccc(N4C[C@@H](N)[C@@H](F)C4)nc3)CCN21 [Example 75, 4-[(4R,9aS)-8-[2-[6-[(3R,4S)-3-amino-4-fluoro-pyrrolidin-1-yl]-3-pyridyl]ethyl]-4-methyl-3,4,6,7,9,9a-hexahydro-1H-pyrazino[1,2-a]pyrazin-2-yl]-3-fluoro-pyrazolo[1,5-a]pyridine-7-carbonitrile]	65
[2H]c1ccc2c(N3C[C@@H]4CN(c5ccc6c(n5)CCNC6)CCN4[C@@H](C)C3)ccc(C#N)c2n1 [Example 121, 5-[(4S,9aR)-4-methyl-8-(5,6,7,8-tetrahydro-1,6-naphthyridin-2-yl)-3,4,6,7,9,9a-hexahydro-1H-pyrazino[1,2-a]pyrazin-2-yl]-2-deuterio-quinoline-8-carbonitrile]	85
C[C@@H]1CN(c2ccc(C#N)c3ncccc23)C[C@@H]2CN(c3cc(N4CCNCC4)ccn3)CCN21 [Example 34, 5-[(4R,9aR)-4-methyl-8-(4-piperazin-1-yl-2-pyridyl)-3,4,6,7,9,9a-hexahydro-1H-pyrazino[1,2-a]pyrazin-2-yl]quinoline-8-carbonitrile]	42
C[C@@H]1CN(c2ccc(C#N)c3ncccc23)C[C@@H]2CN(c3ccnc(N4CCOC[C@H](N)C4)c3)CCN21 [Example 54, 5-[(4R,9aS)-8-[2-[(6R)-6-amino-1,4-oxazepan-4-yl]-4-pyridyl]-4-methyl-3,4,6,7,9,9a-hexahydro-1H-pyrazino[1,2-a]pyrazin-2-yl]quinoline-8-carbonitrile]	43
C[C@@H]1CN(c2ccc(C#N)n3ncc(F)c23)C[C@@H]2CN(Cc3ccc4c(c3)CNCC4)CCN21 [Example 69, 4-[(4R,9aS)-4-methyl-8-(1,2,3,4-tetrahydroisoquinolin-7-ylmethyl)-3,4,6,7,9,9a-hexahydro-1H-pyrazino[1,2-a]pyrazin-2-yl]-3-fluoro-pyrazolo[1,5-a]pyridine-7-carbonitrile]	142
